Data set [1] has as its system MCF-7 cells. As to the kind of experiment: Microarray gene expression analysis (Illumina BeadChip) in MCF-7 cells. In kind it is cell-based, human.
Procedure: Cells were maintained in DMEM supplemented with 10% fetal bovine serum with glutamine, penicillin, and streptomycin. For drug treatment, cells were seeded the day before the drug treatment. Cells were treated with 5 μM 3-Deazaneplanocin A or 2 μM 5-aza-2′-deoxycytidine (5-AzaC; Sigma) for 72 hours and trichostatin A (TSA; Sigma) at 100 nM for 24 hours. For co-treatment of cells with 5-AzaC and TSA, 5-Aza was added for 48 hours and followed by TSA for 24 hours.
The Smartpool siRNA duplexes of selected PRC2 targets and the non-targeting control were purchased from Dharmacon (Lafayett, Colo.). […] Cells were transfected with 50 nM final concentration of siRNA duplexes using Lipofectamine 2000 (Invitrogen) following the manufacturer's instructions.
Total RNA was isolated from cell lines using Trizol (Invitrogen) and was converted to cDNA using an RNA Amplification kit (Ambion). The microarray hybridisation was performed using the Illumina Gene Expression BeadChip (Illumina) and data analysis was performed using GeneSpring software from Agilent Technologies.
The effects on gene expression were analysed using an Illumina Gene Expression BeadChip. […] To be inclusive for the subsequent analysis, all 1402 genes were considered to be potential PRC2 target genes.
To identify the PRC2 targets specifically repressed in breast cancer cells, the expression profiles of the 140 putative PRC2 target genes in MCF-7 cells and MCF10A cells were compared by gene clustering analysis (FIG. 4C).
Data set [2] deals with RNA polymerase II binding to PRC2 target gene promoters. Briefly: ChIP of RNA Pol II binding to PRC2 target gene promoters. In kind it is cell-based, human. The note with it: MCF-7 cells, 5 μM, 48 hours. How it is done: ChIP assays were performed as described previously. […] MCF-7 cell were seeded into 6-well plates at 30% confluence and treated with or without 3-deazaneplanocin (5 μM) for 48 hours. Cells were washed once in 1× phosphate-buffered saline (PBS) and then treated with 1% formaldehyde in PBS at 37° C. for […] followed by the addition of glycine to a final concentration of 0.125 M for 5 mM. Cells were then scraped on ice and centrifuged at 1500 rpm for 5 mM at 4° C. After washing with PBS cell pellets were resuspended in 1 mL of cold lysis buffer (10 mM HEPES at pH 7.5, 1 mM EDTA at pH 8.0, 400 mM NaCl, 10% glycerol, 0.5% NP-40, 0.5 mM phenylmethylsulfonyl fluoride, and protease inhibitors [1 mM benzamidine, 3 mg/mL leupeptin, 0.1 mg/mL bacitracin, 1 mg/mL macroglobulin]) followed by centrifugation at 11,500 rpm in a microfuge for 5 min at 4° C. to remove protein not cross-linked to chromatin. The resulting pellets were then resuspended again in 1 mL of cold lysis buffer and sonicated with a Heat Systems-Ultrasonics, Inc. W-220 sonicator at 20% output for a total of 2 mM (pulsed: 30 sec on/30 sec off). The resulting solution was cleared by centrifugation at maximum speed in a microfuge for 10 mM at 4° C. At this point 5% of the solution was taken and stored at −20° C. for the input chromatin sample. […]

Data set [3] has as its system MCF10A cells. Briefly: Apoptosis by FACS analysis in non-cancerous cells. Type of data set: cell-based. The note with it: 5 μM. How it is done:
Cells were treated with 5 μM 3-deazaneplanocin (DZNep, dark bars) for indicated times.
FIG. 6A depicts an analysis of the breast cancer cell lines MCF-7, MB-468, SK-BR-3, MB-231, T47D and BT549 for an apoptotic effect of 5 μM 3-deazaneplanocin over a time frame of 120 hours. Cell death was measured by FACS analysis. Data presented are the average of three independent experiments.
Cells were trypsinised and washed with PBS and fixed in 70% ethanol and processed for propidium iodide staining and FACS analysis. For the caspase 3 activity assay and mitochondrial membrane potential detection, cells were stained with anti-active caspase 3 and JC-1, respectively, according to the manufacturer's instructions (BD Bioscience).
To determine whether 3-deazaneplanocin preferentially induces apoptosis in cancer cells, the apoptosis induction between MCF-7 cells and the non-cancerous breast epithelial MCF10A cells was compared for various periods of time. […] In addition, normal primary colon epithelial CC33D cells, like MCF10A cells, were also resistant to 3-deazaneplanocin treatment compared to colorectal cancer HCT116 cell, as evaluated by microscopy examination (FIGS. 3G & 3H).
To extend the observation seen in MCF-7 cells, additional breast cancer cell lines were screened, including MB-468, SK-BR-3, MB-231, T47D and BT549. […]
(In general: In flow cytometry, cells or beads pass a laser one at a time.)

For the molecule `Nc1nccc2c1ncn2C1C=C(CO)C(O)C1O` (centres unmarked) [3-deazaneplanocin, 5-(4-amino-1H-imidazo[4,5-c]pyridin-1-yl)-3-(hydroxymethyl)-3-cyclopentene-1,2-diol], the “expression of the 47 PRC2 target genes repressed in MCF-7 relative to MCF10A” value in data set [1] is on record as “re-expression”. Further, the “number of genes upregulated ≧2-fold” value in data set [1] (72 h) stood at 750 genes. Moreover, in data set [2], the “binding of RNA Pol II to PRC2 target gene promoters (ChIP)” value is listed as “increased”. For the same molecule, the “sensitivity to 3-deazaneplanocin-induced cell death” value in data set [3] (MCF10A, time course to 120 hours) is “highly resistant”. Further, the apoptosis induction result in data set [3] (non-cancerous breast epithelial MCF10A cells, up to 96 hours) is recorded as “no obvious apoptosis”.

Source of the values: US8058258B2, “Methods for cancer therapy and stem cell modulation” (Agency for Science, Technology and Research, priority 2006, dated 2011).
